Here are results for 26 molecules from publication PMC9027910, “Synthesis and Antimycobacterial Evaluation of N-(4-(Benzyloxy)benzyl)-4-aminoquinolines” (Molecules, 2022).

The test system of one data set is M. tuberculosis H37Rv. Put plainly: Minimum inhibitory concentration (resazurin microplate). To be noted: for MIC: Mycobacterium tuberculosis, M. tuberculosis H37Rv, 7 days + 48 h resazurin, highest value of three assays; for Activity against M. tuberculosis H37Rv in words: at the highest concentrations evaluated. The data set is classed as cell-based, Mycobacterium tuberculosis.

Take `COc1cc(COc2ccc(CNc3cc(C)nc4ccccc34)cc2)cc(OC)c1` [Compound 9f, N-(4-((3,5-dimethoxybenzyl)oxy)benzyl)-2-methylquinolin-4-amine]: the melting point lay within 134 to 136 °C. Moreover, in the data set with M. tuberculosis H37Rv, the MIC was 12.1 µM.

With `COc1cc(COc2ccc(CNc3cc(C)nc4ccc(Cl)cc34)cc2)cc(OC)c1` [Compound 9l, N-(4-((3,5-dimethoxybenzyl)oxy)benzyl)-6-chloro-2-methylquinolin-4-amine], the melting point is 147 to 149 °C. For the same molecule, the minimal inhibitory concentration (MIC) with M. tuberculosis H37Rv worked out at 5.7 µM.

On to `NNC(=O)c1ccncc1` [INH, isoniazid, reference compound], for which the MIC with M. tuberculosis H37Rv is 2.3 µM.

`Cc1cc(NCc2ccc(OCc3ccc(C(C)C)cc3)cc2)c2cc(Br)ccc2n1` [Compound 9q, N-(4-((4-isopropylbenzyl)oxy)benzyl) 6-bromo-2-methylquinolin-4-amine]: the melting point was 135 to 137 °C. The MIC in the data set on M. tuberculosis H37Rv amounted to 5.3 µM.

`Cc1cc(NCc2ccc(OCc3ccc(C(C)C)cc3)cc2)c2ccccc2n1` [Compound 9e, N-(4-((4-isopropylbenzyl)oxy)benzyl)-2-methylquinolin-4-amine] yielded a melting point of 95 to 97 °C. The MIC in the data set with M. tuberculosis H37Rv was 27 µM.

The molecule `Cc1cc(NCc2ccc(OCc3ccc(F)cc3)cc2)c2cc(Cl)ccc2n1` [Compound 9i, N-(4-((4-fluorobenzyl)oxy)benzyl) 6-chloro-2-methylquinolin-4-amine] came in with a melting point of 170 to 172 °C. For the same molecule, the MIC in the data set with M. tuberculosis H37Rv came out at 6.1 µM.

`Cc1cc(NCc2ccc(OCc3ccc(F)c(F)c3)cc2)c2ccccc2n1` [Compound 9d, N-(4-((3,4-difluorobenzyl)oxy)benzyl)-2-methylquinolin-4-amine] yielded a melting point of 199 to 201 °C. Besides, in the data set with M. tuberculosis H37Rv, the MIC was 25.6 µM.

`Cc1cc(NCc2ccc(OCc3ccccc3)cc2)c2ccccc2n1` [Compound 9a, N-(4-(benzyloxy)benzyl)-2-methylquinolin-4-amine] yielded a melting point of 134 to 136 °C. Moreover, in the data set on M. tuberculosis H37Rv, the minimal inhibitory concentration (MIC) is greater than 7 µM and the “Activity against M. tuberculosis H37Rv in words” value is “inactive”.

In turn, `Cc1cc(NCc2ccc(OCc3ccc(Cl)cc3)cc2)c2ccccc2n1` [Compound 9b, N-(4-((4-chlorobenzyl)oxy)benzyl)-2-methylquinolin-4-amine] came in with a melting point of 111 to 113 °C. In the data set on M. tuberculosis H37Rv, the MIC is greater than 12.9 µM and the “Activity against M. tuberculosis H37Rv in words” value is “inactive”.

Regarding `Cc1cc(NCc2ccc(OCc3ccccc3)cc2)c2cc(Br)ccc2n1` [Compound 9m, N-(4-(benzyloxy)benzyl)-6-bromo-2-methylquinolin-4-amine], the melting point was 164 to 166 °C. In the data set with M. tuberculosis H37Rv (MIC of unsubstituted benzyloxy compound versus 4-halogenated 9n, 9o), the “Fold reduction of activity versus 9n and 9o” value was “more than 2 fold”. Further, the minimal inhibitory concentration (MIC) with M. tuberculosis H37Rv was 5.8 µM.

In turn, `CCc1cc(NCc2ccc(OCc3ccccc3)cc2)c2cc(Br)ccc2n1` [Compound 9s, N-(4-(benzyloxy)benzyl)-6-bromo-2-ethylquinolin-4-amine] yielded a melting point of 136 to 138 °C. Further, the MIC in the data set on M. tuberculosis H37Rv worked out at 5.6 µM.

`CCc1cc(NCc2ccc(OCc3ccccc3)cc2)c2cc(OC)ccc2n1` [Compound 9aa, N-(4-(benzyloxy)benzyl)-2-ethyl-6-methoxyquinolin-4-amine]: the melting point was 118 to 120 °C. The minimum inhibitory concentration (MIC) in the data set on M. tuberculosis H37Rv is 12.5 µM.

In turn, `COc1cc(COc2ccc(CNc3cc(C)nc4ccc(OC)cc34)cc2)cc(OC)c1` [Compound 9z, N-(4-((3,5-dimethoxybenzyl)oxy)benzyl)-6-methoxy-2-methylquinolin-4-amine] gave a melting point of 164 to 166 °C. In addition, in the data set on M. tuberculosis H37Rv, the minimum inhibitory concentration (MIC) came out at 11.2 µM.

Turning to `Cc1cc(NCc2ccc(OCc3ccc(F)cc3)cc2)c2ccccc2n1` [Compound 9c, N-(4-((4-fluorobenzyl)oxy)benzyl)-2-methylquinolin-4-amine], the melting point was 134 to 136 °C. Moreover, the minimum inhibitory concentration (MIC) with M. tuberculosis H37Rv was 26.8 µM.

As to `COc1ccc2nc(C)cc(NCc3ccc(OCc4ccc(Cl)cc4)cc3)c2c1` [Compound 9v, N-(4-((4-chlorobenzyl)oxy)benzyl)-6-methoxy-2-methylquinolin-4-amine], the melting point was 259 to 261 °C. Further, the MIC in the data set on M. tuberculosis H37Rv turned out to be 11.9 µM.

In turn, `COc1cc(COc2ccc(CNc3cc(C)nc4ccc(Br)cc34)cc2)cc(OC)c1` [Compound 9r, N-(4-((3,5-dimethoxybenzyl)oxy)benzyl)-6-bromo-2-methylquinolin-4-amine] registered a melting point of 151 to 153 °C. In addition, in the data set with M. tuberculosis H37Rv, the MIC is 5.1 µM.

In turn, `Cc1cc(NCc2ccc(OCc3ccccc3)cc2)c2cc(Cl)ccc2n1` [Compound 9g, N-(4-(benzyloxy)benzyl)-6-chloro-2-methylquinolin-4-amine] came in with a melting point of 165 to 167 °C. Moreover, in the data set on M. tuberculosis H37Rv, the minimal inhibitory concentration (MIC) amounted to 6.4 µM.

`COc1ccc2nc(C)cc(NCc3ccc(OCc4ccc(C(C)C)cc4)cc3)c2c1` [Compound 9w, N-(4-((4-isopropylbenzyl)oxy)benzyl)-6-methoxy-2-methylquinolin-4-amine] came in with a melting point of 133 to 135 °C. In addition, the minimal inhibitory concentration (MIC) in the data set with M. tuberculosis H37Rv worked out at 23.4 µM.

In turn, `COc1ccc2nc(C)cc(NCc3ccc(OCc4ccccc4)cc3)c2c1` [Compound 9u, N-(4-(benzyloxy)benzyl)-6-methoxy-2-methylquinolin-4-amine] showed a melting point of 96 to 98 °C. Also, the minimal inhibitory concentration (MIC) with M. tuberculosis H37Rv stood at 13 µM.

Regarding `Cc1cc(NCc2ccc(OCc3ccc(F)c(F)c3)cc2)c2cc(Cl)ccc2n1` [Compound 9j, N-(4-((3,4-difluorobenzyl)oxy)benzyl)-6-chloro-2-methylquinolin-4-amine], the melting point lay within 137 to 139 °C. In addition, the minimum inhibitory concentration (MIC) with M. tuberculosis H37Rv is 5.9 µM.

Molecule `CCc1cc(NCc2ccc(OCc3ccc(Cl)cc3)cc2)c2cc(Br)ccc2n1` [Compound 9t, N-(4-((4-chlorobenzyl)oxy)benzyl)-6-bromo-2-ethylquinolin-4-amine] gave a melting point of 122 to 124 °C. Moreover, the “Fold higher MIC than 9n” value in the data set on M. tuberculosis H37Rv (MIC ratio versus methylated analogue 9n) stood at 1.9 fold. Further, the minimum inhibitory concentration (MIC) in the data set on M. tuberculosis H37Rv was 5.2 µM.

Regarding `Cc1cc(NCc2ccc(OCc3ccc(Cl)cc3)cc2)c2cc(Cl)ccc2n1` [Compound 9h, N-(4-((4-chlorobenzyl)oxy)benzyl) 6-chloro-2-methylquinolin-4-amine], the melting point fell in the range of 177 to 179 °C. For the same molecule, the MIC in the data set with M. tuberculosis H37Rv was 5.9 µM.

Regarding `Cc1cc(NCc2ccc(OCc3ccc(F)c(F)c3)cc2)c2cc(Br)ccc2n1` [Compound 9p, N-(4-((3,4-difluorobenzyl)oxy)benzyl) 6-bromo-2-methylquinolin-4-amine], the melting point is 142 to 144 °C. Also, in the data set on M. tuberculosis H37Rv, the MIC came to 5.3 µM.

On to `COc1ccc2nc(C)cc(NCc3ccc(OCc4ccc(F)cc4)cc3)c2c1` [Compound 9x, N-(4-((4-fluorobenzyl)oxy)benzyl)-6-methoxy-2-methylquinolin-4-amine], for which the melting point lay within 141 to 143 °C. Besides, in the data set with M. tuberculosis H37Rv, the minimum inhibitory concentration (MIC) was determined as 12.4 µM.

As for `COc1ccc2nc(C)cc(NCc3ccc(OCc4ccc(F)c(F)c4)cc3)c2c1` [Compound 9y, N-(4-((3,4-difluorobenzyl)oxy)benzyl)-6-methoxy-2-methylquinolin-4-amine], the melting point fell in the range of 104 to 106 °C. The MIC in the data set with M. tuberculosis H37Rv is 5.9 µM.

In turn, `Cc1cc(NCc2ccc(OCc3ccc(C(C)C)cc3)cc2)c2cc(Cl)ccc2n1` [Compound 9k, N-(4-((4-isopropylbenzyl)oxy)benzyl)-6-chloro-2-methylquinolin-4-amine] yielded a melting point of 126 to 128 °C. Also, the minimum inhibitory concentration (MIC) in the data set on M. tuberculosis H37Rv worked out at 5.8 µM.
